These results are taken from publication PMC5702336, “Critical Role of Hepatic Cyp450s in the Testis-Specific Toxicity of (5R)-5-Hydroxytriptolide in C57BL/6 Mice” (Frontiers in Pharmacology, 2017).

As a reminder, the Cmax is the highest concentration seen after dosing. As usually defined, the Tmax is the time at which the peak concentration occurs.

Data set [1] concerns GC-2spd, GC-1spg and TM4 cells. As to the kind of experiment: γ-H2AX protein level in three germ-cell lines (western blot). In kind it is cell-based, mouse. As to conditions: 8h/16h treatment. On the procedure: Mouse GC-1spg (spermatogonia-like, ATCC number: CRL-2053), TM4 (Sertoli cell-like, ATCC number: CRL-1715), and GC-2spd (spermatocyte-like, ATCC number: CRL-2196) were purchased from ATCC (Manassas, VA). Cells were grown in a 5% CO2 atmosphere at 37°C. TM4 was cultured in DMEM supplemented with 5% horse serum, 2.5% fetal bovine serum and 1x antibiotic-antimyotic (Cat. NO. 15240062, Life technologies). GC-1spg and GC-2spd were cultured in DMEM supplemented with 10% fetal bovine serum (Cat. No. F2442, Sigma, USA) and 1x antibiotic-antimyotic (Cat.NO. 15240062, Life technologies).
Cells were washed twice with ice-cold PBS (137 mM NaCl, 2.7 mM KCl, 10 mM Na2HPO4, and 1.8 mM KH2PO4, pH 7.4) and lysed in SDS sample buffer. Cell lysates, containing 20 μg of protein, were separated with SDS-PAGE (8%) and transferred to polyvinylidene difluoride membranes. […]
The effects of LLDT-8 on the expression of γ-H2AX was investigated in spermatocyte-like GC-2spd cells (A), spermatogonia-like cells (B) and sertoli-like cells (C) after 8h/16h treatment of LLDT-8 at indicated concentration. The protein level was quantified with ImageQuant software. β-actin was used as a loading control. Significant difference was determined by one-way Anova, Bars represent the mean ± SD, n = 3, * p<0.05, ** p<0.01 vs control group (0 nM).

Data set [2] in a line: Toxicokinetics of LLDT-8 in WT and liver-Cpr KO mice after a single oral dose (plasma and tissue levels by LC-MS/MS). The conditions noted are these: for T1/2: mean ± SD, n = 5. It counts as in vivo, mouse. On the procedure: For toxicokinetic experiments, mice (n = 5–6/group for each time point) were treated with a single dose of LLDT-8 at (0.5 or 1.0 mg/kg) by oral gavage, creating 4 treatment groups: 0.5 mg/kg LLDT-8-treated WT and KO mice, and 1.0 mg/kg LLDT-8-treated WT and KO mice. After LLDT-8 treatment, 20 μL blood samples were collected at 5, 10, 20, 30, 45, 60, 90, 120, and 180 min from tail vein. Plasma was separated by centrifugation at 3,000 rpm for 5 min and kept at −80°C until analysis. Tissues including the liver, kidney, testes, and epididymis were also collected from individual mice at 30 and 180 min after dosing and were weighed and homogenized in saline (1.0 g wet weight/mL) on ice. LLDT-8 was then extracted from the plasma or the tissue homogenates with an equal volume of ethyl acetate and dried under nitrogen. The residues were reconstituted in 50 μL of mobile phase for analysis.
The quantification of LLDT-8 in samples was performed on Shimadzu 20A HPLC system (Shimadzu, Kyoto, Japan) equipped with an autosampler coupled to Shimadzu 8030 triple quadrupole mass spectrometer (Shimadzu, Kyoto, Japan). Separations were conducted under isocratic conditions. The mobile phase consisting of acetonitrile and water with 0.1% formic acid (50:50, v/v) was set at a flow rate of 0.2 mL/min. An electrospray interface in negative ionization mode was used. ESI source parameters were as followed: high purity drying-gas (N2) flow rate 8 L/min, temperature 400°C, nebulizer pressure 25 psi. Multiple reaction monitoring (MRM) was used to quantify LLDT-8 (m/z 421.20 [M+COO]- → 45.10, fragmentor 110 eV, collision energy −20 eV). Analytical data were processed using the labsolution software package (Shimadzu, Kyoto, Japan) consisting of qualitative and quantitative software.
Standard curves for LLDT-8 were prepared by spiking known amounts of the LLDT-8 standard into plasma or tissue homogenate samples prepared from untreated mice. LLDT-8 concentrations in biological samples were determined by comparisons with standard curves. Pharmacokinetics were calculated using Kinetica software (version 4.4.1; Thermo Fisher Scientific Inc, Woburn, MA).

Where [3] appears, read: KO mice, plasma, 1.0 mg/kg single oral dose.
The mark [4] stands for this setting: WT mice, plasma, 1.0 mg/kg single oral dose.

In the case of `CC(C)[C@]12O[C@H]1[C@@H]1O[C@]13[C@]1(O[C@H]1C[C@@]1(O)C4=C(CC[C@]31C)C(=O)OC4)[C@@H]2O` [LLDT-8, (5R)-5-hydroxytriptolide], the “protein levels of γ-H2AX in three germ-cell lines” value in data set [1] was “did not decrease”. The “LLDT-8 levels in liver, kidney, testis and epididymis of KO mice relative to WT mice” value in data set [2] (30 min after 1.0 mg/kg oral dose) was 2–3 folds. In addition, in data set [2] (setting [3]), the AUC was 753.52 ± 76.39 [ng/ml] × h, the “CL (oral clearance)” value amounted to 22.2 ± 2 mL/min/kg, the Cmax amounted to 57.97 ± 8.28 ng/mL and the Tmax amounted to 19.8 ± 6.6 min. In addition, the T1/2 in data set [2] (setting [3]) was determined as 35.4 ± 3.6 min. In addition, in data set [2] (setting [4]), the “CL (oral clearance)” value amounted to 68.8 ± 8.83 mL/min/kg, the Cmax is 29.95 ± 2.81 ng/mL, the Tmax was 10.2 ± 0 min and the T1/2 came out at 18.6 ± 1.8 min. For the same molecule, the “clearance in KO mice compared to WT mice” value in data set [2] (single oral dose) is reported as “marked decrease”. Also, in data set [2] (single oral dose, KO vs WT), the “increase in AUC in KO mice” value was 3.1 folds to WT mice, the “increase in Cmax in KO mice” value was 1.9 folds to WT mice and the “increase in half-life in KO mice” value was 1.9 folds to WT mice.
